Earlier results as cited in patent US20200188476A1, “ANTI-MICROBIAL AGENT-POLYMER CONJUGATES AND METHODS OF USE THEREOF” (The Regents of the University of California, priority 2017, published 2020).

Experiments:
[1] = tested on: bacteria
[2] = tested on: cell culture
[3] = human, in vivo
[4] = tested on: bacteria; remark: listed apart in the source

Polymyxin B nonapeptide [nonapeptide of polymyxin B]
reduction of antibacterial activity relative to polymyxin B [1]: 2-64 fold | reduction of toxicity in cell culture relative to polymyxin B [2]: about 100 fold

colistin
overall incidence of neurotoxicity or neuropathy [3]: 7.3%

octanoyl polymyxin B heptapeptide
concentration that inhibits the growth of bacteria [4]: 128 µg/mL

octanoyl polymyxin B nonapeptide
inhibition of bacterial growth [4]: very potent agents to inhibit bacterial growth

octanoyl polymyxin B octapeptide
inhibition of bacterial growth [4]: very potent agents to inhibit bacterial growth
